Laboratory results: ChEMBL document CHEMBL1157485, “Studies on the structure-activity relationship of bicifadine analogs as monoamine transporter inhibitors” (Bioorg Med Chem Lett, 2008)
Calls of active or inactive are those of the source. The calls are words filed in the database; no cut-off is given here.

Key:
[1] = Apparent permeability across human CaCo2 cells; type: ADME, cell-based; settings: Caco-2
Mus musculus [2] = assay: Antinociceptive activity in formalin-treated mouse model of persistent pain assessed as reduction in number of hind paws flinches at 30 mg/kg; type: functional; design: scale not given: the % may be the effect or the level left
[3] = Efflux ratio in human CaCo2 cells; type: ADME, cell-based; settings: Caco-2
[4] = biological target: Sodium-dependent dopamine transporter (Rattus norvegicus, UniProt P23977); assay: Inhibition of dopamine uptake at cloned DAT in rat brain synaptosome; type: tissue-based
Transporter = Transporter (Rattus norvegicus, UniProt Q63380); assay: Inhibition of norepinephrine uptake at NET in rat brain synaptosome; type: tissue-based
[5] = biological target: Sodium-dependent serotonin transporter (Rattus norvegicus, UniProt P31652); assay: Inhibition of serotonin uptake at SERT in rat brain synaptosome; type: tissue-based
Mus musculus [6] = assay: Antinociceptive activity in formalin-treated mouse model of persistent pain assessed as reduction in licking time at 60 mg/kg; type: functional

Sodium-dependent dopamine transporter, sequence (P23977 whole entry): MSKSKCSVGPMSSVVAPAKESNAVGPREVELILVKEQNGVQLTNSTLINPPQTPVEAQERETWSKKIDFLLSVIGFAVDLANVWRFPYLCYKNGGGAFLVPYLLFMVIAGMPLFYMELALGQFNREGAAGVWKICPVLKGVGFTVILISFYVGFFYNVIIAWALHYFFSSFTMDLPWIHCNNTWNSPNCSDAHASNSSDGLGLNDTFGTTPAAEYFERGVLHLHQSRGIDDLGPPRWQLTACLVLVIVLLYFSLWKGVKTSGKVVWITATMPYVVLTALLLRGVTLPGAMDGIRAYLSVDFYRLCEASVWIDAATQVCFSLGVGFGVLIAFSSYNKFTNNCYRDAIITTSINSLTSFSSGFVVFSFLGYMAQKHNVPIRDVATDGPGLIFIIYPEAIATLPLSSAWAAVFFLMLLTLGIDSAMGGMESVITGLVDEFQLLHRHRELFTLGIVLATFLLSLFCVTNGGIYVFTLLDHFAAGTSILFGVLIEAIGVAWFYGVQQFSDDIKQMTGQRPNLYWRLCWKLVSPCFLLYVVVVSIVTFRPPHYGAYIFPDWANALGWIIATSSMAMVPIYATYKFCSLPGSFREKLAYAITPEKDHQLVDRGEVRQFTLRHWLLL
Sodium-dependent serotonin transporter, sequence (P31652 whole entry): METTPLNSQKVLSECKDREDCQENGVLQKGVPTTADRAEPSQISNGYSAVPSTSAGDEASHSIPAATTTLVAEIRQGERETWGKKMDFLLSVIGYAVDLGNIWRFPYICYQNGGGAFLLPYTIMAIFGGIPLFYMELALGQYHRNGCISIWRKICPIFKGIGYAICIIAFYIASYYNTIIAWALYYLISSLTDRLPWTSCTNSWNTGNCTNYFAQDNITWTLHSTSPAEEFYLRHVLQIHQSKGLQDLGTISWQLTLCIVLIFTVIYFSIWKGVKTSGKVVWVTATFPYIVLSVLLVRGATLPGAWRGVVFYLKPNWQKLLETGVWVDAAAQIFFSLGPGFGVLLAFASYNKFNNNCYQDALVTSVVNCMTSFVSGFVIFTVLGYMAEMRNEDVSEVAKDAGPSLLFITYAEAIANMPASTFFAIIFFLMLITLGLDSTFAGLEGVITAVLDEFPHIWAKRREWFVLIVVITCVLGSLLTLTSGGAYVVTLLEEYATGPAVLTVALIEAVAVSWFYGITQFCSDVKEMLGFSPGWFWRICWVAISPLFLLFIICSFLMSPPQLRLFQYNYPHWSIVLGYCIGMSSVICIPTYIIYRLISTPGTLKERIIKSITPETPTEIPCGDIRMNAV
Transporter, sequence (Q63380 whole entry): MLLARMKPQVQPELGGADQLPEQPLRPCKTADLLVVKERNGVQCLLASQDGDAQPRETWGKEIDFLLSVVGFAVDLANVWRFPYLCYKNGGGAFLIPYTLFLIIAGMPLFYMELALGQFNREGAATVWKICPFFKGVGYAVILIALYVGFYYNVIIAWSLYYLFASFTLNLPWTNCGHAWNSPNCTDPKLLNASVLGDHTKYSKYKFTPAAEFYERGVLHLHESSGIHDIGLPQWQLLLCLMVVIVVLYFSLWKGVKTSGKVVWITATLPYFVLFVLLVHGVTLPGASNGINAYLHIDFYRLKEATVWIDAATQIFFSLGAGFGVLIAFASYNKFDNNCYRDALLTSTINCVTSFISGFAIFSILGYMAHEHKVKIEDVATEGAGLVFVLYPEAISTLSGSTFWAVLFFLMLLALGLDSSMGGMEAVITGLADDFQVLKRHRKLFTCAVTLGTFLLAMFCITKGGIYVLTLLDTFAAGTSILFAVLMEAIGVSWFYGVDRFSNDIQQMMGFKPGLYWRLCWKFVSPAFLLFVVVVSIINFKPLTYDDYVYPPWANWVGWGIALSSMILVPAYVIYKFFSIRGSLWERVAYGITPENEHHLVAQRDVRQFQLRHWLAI

| Structure (SMILES) | Papp [1] [nm/s] | Activity (Mus musculus [2]) [%] | efflux ratio [3] | IC50 [4] [µM] | IC50 (Transporter) [µM] | IC50 [5] [µM] | Activity (Mus musculus [6]) |
| --- | --- | --- | --- | --- | --- | --- | --- |
| c1csc([C@]23CNC[C@H]2C3)c1 | 176 | 40 | 0.7 | 2.4 | 0.092 | 1.9 | – |
| C[C@@H]1NC[C@@]2(c3cccs3)C[C@@H]12 (relative stereo) | – | – | – | 9.5 | 0.56 | 6 | – |
| Clc1ccc([C@@]23CNC[C@@H]2C3)s1 | – | – | – | 2.5 | 0.59 | 1.3 | – |
| c1ccc(-c2ccc(C34CNCC3C4)cc2)cc1 (stereo not given) | – | – | – | 2.3 | 0.36 | 0.16 | – |
| Brc1ccc(C23CNCC2C3)s1 (stereo not given) | – | – | – | 2.4 | 0.19 | 0.14 | – |
| C[C@H]1NC[C@@H]2C[C@@]21c1cccs1 (relative stereo) | – | – | – | 8.9 | 0.15 | 5.8 | – |
| Clc1cc(Cl)c(C23CNCC2C3)s1 (stereo not given) | – | – | – | > 10 | 5.3 | 4.2 | – |
| c1ccc(C23CNCC2C3)cc1 (stereo not given) | – | – | – | 2.7 | 0.35 | 5.2 | – |
| c1ccc2c(C34CNCC3C4)csc2c1 (stereo not given) | – | – | – | 0.78 | 0.22 | 0.073 | – |
| Brc1ccc([C@@]23CNC[C@@H]2C3)s1 | – | – | – | 8.2 | 0.34 | 0.38 | – |
| Clc1ccc(C23CNCC2C3)s1 (stereo not given) | – | – | – | 3.3 | 0.13 | 0.19 | – |
| c1ccc2sc(C34CNCC3C4)cc2c1 (stereo not given) | – | – | – | 0.18 | 0.053 | 0.071 | – |
| CC1(C)C2CNCC21c1ccccc1 (stereo not given) | – | – | – | > 10 | 7.2 | 1.8 | – |
| Clc1ccc([C@@]23CNC[C@@H]2[C@H]3c2ccccc2)cc1Cl (relative stereo) | – | – | – | 0.36 | 0.034 | 0.35 | – |
| c1cnc2ccc(C34CNCC3C4)cc2c1 (stereo not given) | – | – | – | 3.9 | 1.4 | 0.64 | – |
| c1ccc2cc(C34CNCC3C4)ccc2c1 (stereo not given) | – | – | – | 0.19 | 0.036 | 0.05 | – |
| Fc1ccc2sc([C@]34CNC[C@H]3C4)cc2c1 | – | – | – | 0.42 | 0.067 | 0.033 | – |
| FC(F)(F)c1ccc(C23CNCC2C3)s1 (stereo not given) | – | – | – | > 10 | 3.1 | 0.19 | – |
| C[C@H]1[C@H]2CNC[C@]21c1ccc(Cl)c(Cl)c1 (relative stereo) | – | – | – | 0.5 | 0.5 | 0.2 | – |

| Structure (SMILES) | Papp [1] [nm/s] | Activity (Mus musculus [2]) [%] | efflux ratio [3] | IC50 [4] [µM] | IC50 (Transporter) [µM] | IC50 [5] [µM] | Activity (Mus musculus [6]) |
| --- | --- | --- | --- | --- | --- | --- | --- |
| c1cc2c(cc1C13CNCC1C3)OCO2 (stereo not given) | – | – | – | > 10 | 3.5 | 1.5 | – |
| c1ccc2oc(C34CNCC3C4)cc2c1 (stereo not given) | – | – | – | 0.33 | 0.048 | 0.14 | – |
| Fc1ccc([C@]23CNC[C@H]2C3)s1 | – | – | – | > 10 | 0.47 | 8.1 | – |
| c1csc([C@@]23CNC[C@@H]2C3)c1 | – | – | – | 6.2 | 0.15 | 4.9 | – |
| C[C@H]1NC[C@@]2(c3cccs3)C[C@@H]12 (relative stereo) | – | – | – | 3.4 | 0.32 | 7.6 | – |
| c1cc2c(cc1[C@@]13CNC[C@@H]1C3)CCO2 | – | – | – | 9.1 | 4.8 | 0.61 | – |
| C[C@@H]1[C@H]2CNC[C@@]12c1ccc(Cl)c(Cl)c1 (relative stereo) | – | – | – | 0.4 | 0.029 | 0.19 | – |
| CCOc1ccccc1O[C@@H](c1ccccc1)[C@@H]1CNCCO1 | – | – | – | – | – | – | inactive |
| O=C1NCC2CC12c1cccs1 (stereo not given) | – | – | – | > 10 | > 10 | > 10 | – |
| Clc1ccc([C@]23CNC[C@H]2C3)s1 | – | – | – | 1.5 | 0.077 | 0.081 | – |
| c1ccc([C@@H]2[C@H]3CNC[C@]32c2ccccc2)cc1 | – | – | – | 8.7 | 0.12 | 0.24 | – |
| Cc1ccc(C23CNCC2C3)cc1 (stereo not given) [BICIFADINE] | – | – | – | – | – | – | 89% |
| c1csc(C23CNCC2C3)c1 (stereo not given) | – | – | – | 7.5 | 0.13 | 4.5 | – |
| c1cc2c(cc1[C@@]13CNC[C@@H]1C3)CCC2 | – | – | – | > 10 | 2 | 0.097 | – |
| FC12CNCC1(c1ccccc1)C2 (stereo not given) | – | – | – | > 10 | 1.8 | 2.9 | – |
| c1cc([C@@]23CNC[C@@H]2C3)cs1 | – | – | – | 8.2 | 0.3 | 6.8 | – |
| Cc1csc(C23CNCC2C3)c1 (stereo not given) | – | – | – | > 10 | 6.8 | > 10 | – |
| CN1CC2CC2(c2cccs2)C1 (stereo not given) | – | – | – | > 10 | 1.6 | 6.3 | – |
